Experimental findings from PubChem BioAssay (NCI) are described below.

The structures appear in SMILES notation.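 Interpolation was linear, between the two tested concentrations surrounding the appropriate level; five concentrations were tested over 48 hours in 96-well plates. Here, GI50 denotes the concentration required for 50% inhibition of growth. The concentration for full growth arrest is given as TGI.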 A value given as a limit tells only on which side of the number the result lay.

Common to all, as to assay: NCI anticancer screen, dose series, 48 h
In assay [1] the test system is SK-OV-3 ovarian.
For assay [2], the system named is ACHN renal.
The subject of assay [3] is SN12C renal.
The subject of assay [4] is OVCAR-3 ovarian.
Assay [5] deals with U251 CNS.
Assay [6] concerns KM12 colon.
For assay [7], the system named is IGROV1 ovarian.
In assay [8] the test system is UACC-62 melanoma.
Assay [9] deals with MDA-MB-435.
Assay [10] deals with DU-145 prostate.

With `COc1ccc2c(c1)c(=O)c1c(NCCN(C)C)ccc3nnn2c31`, the TGI is 23.9 µM in assay [1]; 14.6 µM in assay [2]; 19.7 µM in assay [3]; 19.6 µM in assay [4]; 16.5 µM in assay [5]; 6.03 µM in assay [6]. Also, the TGI came to 17.4 µM in [7] and 17.8 µM in [8].
As for `CC(CN(C)C)C(=O)c1ccccc1` (centres undefined), the TGI in assay [2] was > 56.5 µM; in assay [3], 33.8 µM; in assay [4], 97.8 µM; in assay [5] it was > 100 µM; in [6], > 51.5 µM; in [7], > 100 µM. Besides, the TGI in assay [8] is > 57.4 µM.
As to `NC(Cc1ncccn1)C(=O)O` (centres undefined), the TGI in assay [9], in assay [1], in assay [10], in assay [2], in assay [3] and in assay [4] was > 100 µM throughout. The TGI in [5], in assay [6], in [7] and in [8] was > 100 µM in each case.
Take `O=C(NCCNc1nccc(-c2c(-c3cccc(O)c3)nc3sccn23)n1)c1ccccc1`: the GI50 is 0.578 µM in assay [9]; 19.7 µM in assay [10]; 6.43 µM in [2]; 9.04 µM in assay [3]; 12.3 µM in [4]; 17.9 µM in assay [5]. Moreover, the GI50 in [6] is 12.1 µM; in assay [7], 3.61 µM; in assay [8], 0.211 µM. Moreover, the TGI is 12.8 µM in assay [9]; 68.7 µM in assay [10]; 34.9 µM in [2]; 38.4 µM in assay [3]; 64.8 µM in [4]; > 100 µM in assay [5]. Further, the TGI in assay [6] turned out to be 28.5 µM; in assay [7] it was 50.9 µM; in assay [8], 1.37 µM.
Consider `ClCc1cccc(CSc2ncnc3c2ncn3Cc2cccc(CCl)c2)c1`, for which the GI50 in assay [9] is 1.71 µM; in assay [1], 2.3 µM; in assay [10], 1.85 µM; in assay [2] it was 2 µM; in [3] it was 2.02 µM; in assay [4], 1.86 µM. Moreover, the GI50 in assay [5] was 1.59 µM; in [6], 1.88 µM; in assay [7], 1.95 µM; in assay [8], 1.76 µM. Also, the TGI in [9] came to 3.67 µM; in [1] it was 4.97 µM; in assay [10], 3.3 µM; in assay [2], 4.39 µM; in assay [3] it was 7.33 µM; in assay [4], 3.31 µM. Besides, the TGI came out at 3.01 µM in [5], 3.46 µM in assay [6], 4.51 µM in assay [7] and 3.46 µM in assay [8].
Turning to `O=S(=O)(O)c1ccc2c(N=Nc3ccc(Cl)cc3)c(O)ccc2c1`, the TGI in assay [9], in assay [1], in assay [10], in [2], in [3] and in assay [4] was > 100 µM throughout. Besides, the TGI in [5], in assay [6], in assay [7] and in assay [8] was > 100 µM each time.
With `CC(C)/C(=N\[N+](C)(C)C)c1ccccc1`, the TGI in assay [9], in [1], in assay [10], in assay [2], in assay [3] and in [4] was > 100 µM throughout. Further, the TGI in assay [5], in assay [6], in [7] and in [8] was > 100 µM each time.
For the compound `CCOC(=O)Cc1cnc(NC(NC(=O)CC)(C(F)(F)F)C(F)(F)F)s1`, the TGI in assay [9], in [1], in assay [10], in [2], in assay [3] and in assay [4] was > 100 µM in each case. The TGI in [5], in assay [6] and in assay [8] was > 100 µM in each case.
Take `COc1c2c(cc3c1C1(O)Cc4ccc5c(c4C[N+]1(C)CC3)OCO5)OCO2` (centres undefined): the TGI in [9], in assay [1], in assay [10], in assay [2], in assay [3] and in assay [4] was > 100 µM each time. Also, the TGI in assay [5], in assay [6], in [7] and in assay [8] was > 100 µM each time.
In the case of `COc1ccc(C2C3CCCC(C3=O)C(c3ccc(OC)cc3)N2N=O)cc1` (centres undefined), the TGI in assay [1] was > 87.6 µM; in assay [3] it was 39.2 µM; in [4] it was 20 µM; in [5], > 100 µM; in [6], > 74.1 µM; in assay [7] it was 97.5 µM. In assay [8], this compound displayed a TGI of 97.4 µM.
Turning to `COc1cccc2cc(C(C)=O)c(=O)oc12`, the TGI in assay [9], in [10], in assay [2], in [3], in assay [4] and in assay [5] was > 100 µM throughout. For the same compound, the TGI in [6], in assay [7] and in [8] was > 100 µM each time.
For `O=C(NNS(=O)(=O)c1ccccc1)c1cccnc1`, the TGI in [9], in [1], in [10], in assay [2], in [3] and in assay [4] was > 100 µM each time. Moreover, the TGI in assay [5], in [6], in assay [7] and in [8] was > 100 µM throughout.
With `COc1cc(C2c3cc4c(cc3[C@@H](Oc3ccc(F)cc3)C3COC(=O)[C@H]23)OCO4)cc(OC)c1O` (some centres undefined), the TGI was > 100 µM in [3]; 72.3 µM in assay [4]; > 100 µM in assay [5]; 27.9 µM in assay [6]; > 100 µM in [7]; > 100 µM in assay [8].
As for `C[N+]1(CCC[N+]2(C)CC3C4C=CC(CC4)C3C2)CCOCC1` (centres undefined), the TGI in assay [9], in [1], in assay [10], in [2], in assay [3] and in assay [4] was > 100 µM throughout. Also, the TGI in [5], in assay [6], in assay [7] and in [8] was > 100 µM each time.
On to `O=C(Nc1cccc2ccccc12)c1ccccc1`, for which the TGI in assay [9], in assay [1], in [10], in [2], in assay [3] and in assay [4] was > 100 µM in each case. The TGI in assay [5], in assay [6], in assay [7] and in [8] was > 100 µM each time.
